Test results taken from patent US10149817B2, “Topical skin treatment composition comprising dendranthema indicum extract” (AMOREPACIFIC CORPORATION, priority 2011, dated 2018).

Legend:
[1] = system: skin of panels sensitive to irritation; experiment: Irritation test (stinging, burning) in panels sensitive to irritation; assay type: in vivo; conditions: 0.5 mL applied to skin, 15 panels
Procedure: In order to compare the sensory feeling of the Chrysanthemum indicum var. albescens extract of the present invention with that of the known whitening substance kojic acid, 15 panels sensitive to irritation, such as stinging, burning, etc., were subjected to a test for determining irritation, such as stinging, burning, etc.
Each test panel was allowed to apply 0.5 mL of each of kojic acid (available from YM Chemical Co.) and the Chrysanthemum indicum var. albescens extract to his/her skin randomly at the left side or right side, and then evaluate the test sample by grading from 0 to 3.0 at an interval of 0.1.
0.5-1.0: slight irritation;
1.1-2.0: mild irritation;
2.1-3.0: severe irritation.

[2] = system: collagenase; experiment: Inhibition of collagenase expression in human fibroblasts; assay type: cell-based; conditions: 10^−4 M test material, 24 hours, untreated group = 100
Procedure: The collagenase expression inhibitory activities of the Chrysanthemum indicum var. albescens extract prepared in Preparation Example 1 and the Chrysanthemum indicum extract prepared in Comparative Preparation Example 1 were measured comparatively with those of tocopherol and EGCG. Tocopherol and EGCG are antioxidant substances known to function to regenerate the epidermal cells of the skin to prevent the aging of the skin.
In the test, human fibroblasts were added to a 96-well microtiter plate containing 2.5% FBS-containing DMEM (Dulbecco's Modified Eagle's Media) medium at a density of 5,000 cells/well and were cultured to a confluence of about 90%. […]
The production of collagenase in the harvested cell cultures was measured using a commercially available collagenase measuring device (Amersham Pharmacia, USA). […]
The absorbance of the 96-well plate having a yellow color was measured at 405 nm using a spectrophotometer, and the degree of synthesis of collagenase was calculated using the following Equation 1. Herein, the absorbance of the cell culture broth harvested from the group not treated with the test material was used as a control. That is, the expression level of collagenase in the untreated group was set as 100, and the expression level of collagenase in the group treated with the test material was calculated relative to the untreated group. […]

[3] = system: C57BL/6 mouse melanocytes (Mel-Ab cells); experiment: Melanin production inhibitory effect using mouse melanocytes; assay type: cell-based; conditions: 25 ppm test material, three consecutive days, absorbance at 400 nm
Procedure: The melanin production inhibitory activities of the Chrysanthemum indicum var. albescens extract prepared in Preparation Example 1 and the Chrysanthemum indicum extract prepared in Comparative Preparation Example 1 were measured comparatively with those of the known whitening substance hydroquinone.
C57BL/6 mouse melanocytes (Mel-Ab cells) (Dooley, T. P. et al, Skin pharmacol, 7, pp 188-200) were cultured in DMEM, containing 10% fetal bovine serum, 100 nM 12-O-tetradecanoylphorbol-13-acetate and 1 nM cholera toxin, under the conditions of 37° C. and 5% CO2. The cultured Mel-Ab cells were detached with 0.25% trypsin-EDTA and cultured in a 24-well plate at a concentration of […]. Then, during three consecutive days from 2 days of culture, each of the test materials was added thereto and cultured. As the test materials, 25 ppm of each of the Chrysanthemum indicum var. albescens extract of Preparation Example 1, the Chrysanthemum indicum extract of Comparative Preparation Example 1, and hydroquinone were used. Herein, the hydroquinone was used as a positive control. […] The lysed cells were measured for absorbance at 400 nm, and based on the measured absorbance, the percent inhibition of melanin production was calculated according to the following equation 2. Percent inhibition of melanin production=100−(absorbance of test material/absorbance of control×100) Equation 2

[4] = grade 0 to 3.0 at interval of 0.1

O=c1cc(CO)occ1O [Kojic acid, kojic acid]
Irritation with respect to stinging and burning (in words) [1]: slight stinging and burning | Average (irritation grade of stinging and burning) ([1]; grade 0 to 3.0): 0.67 | Burning (irritation grade 0 to 3.0) [1, 4]: 0.43 | Stinging (irritation grade 0 to 3.0) [1, 4]: 0.91

tocopherol
Collagenase expression level (%) [2]: 76%

Oc1ccc(O)cc1 [Hydroquinone, hydroquinone]
inhibition at 25 ppm [3]: 48.2%

O=C(O[C@@H]1Cc2c(O)cc(O)cc2O[C@@H]1c1cc(O)c(O)c(O)c1)c1cc(O)c(O)c(O)c1 [EGCG]
Collagenase expression level (%) [2]: 69%
